Entries after “also recorded” stand apart in the source; their conditions may differ. Where a name gives a salt, the structure may show the parent alone.

Experiment [1] has as its system xenograft neuroblastoma tumors. In words: Tumor formation, xenograft neuroblastoma tumors in vivo. Further details: species or system human. As to conditions: FIG. 4C.
The test system of experiment [2] is human SKPs. In words: Dose-response curves for proliferation of human SKPs in presence of EGF and FGF2. The experiment is classed as cell-based. The following applies: for proliferation of human SKPs: 100 nM, compared to cells grown in the absence of the agent. Here is the method:
The proliferative effects of MG 624 on SKPs and neuroblastoma tumor initiating cells have also been studied in detail. Dose response curves for proliferation of human SKPs and neuroblastoma tumor initiating cells in response to MG 624 were generated in the presence of EGF and FGF2. At 200 nM MG 624, SKP cell proliferation is enhanced (FIG. 5).
To characterize enhancement of proliferation brought about by the agents identified above, dose-response curves for MG624, GSK3β, pramoxine, kaempferol, and alprostadil in presence of EGF and FGF2 were generated (FIGS. 6A-6E).

A further experiment has as its system Sox2-EGFP mice. In words: Single agent topical application, hair length in shaved Sox2-EGFP mice. The experiment is classed as in vivo, mouse. The following applies: for hair length distribution histogram relative to control group: day 23, classes of 200 μm; for hair length: topical daily, days 16, 19 and 23, compared to control mice. How it is done: Sox2-EGFP mice, 7-8 weeks old, were shaved on the dorsal back to synchronize the hair cycle, and kaempferol (Kae) or alprostadil (Alp) was topically applied daily. Control mice were treated with vehicle only. At days 16, 19, and 23, about 30-40 hairs were plucked from each mouse, and their length was measured. Three or four mice were used in each group. […] Hair length promoted by the compounds on day 23 is shown in distribution histograms relative to the control group. Hair length was binned in classes of 200 μm, and each class was expressed as a percentage of total hair population.

For experiment [3], the system named is human SKPs. Nature of the experiment: In vitro sphere assay, human SKPs from foreskin. Format: cell-based. As to conditions: treated for seven days, Hoechst stain, compared to vehicle control. How it is done: FIG. 7 is a schematic illustration of the in vitro sphere assay. SKPs were isolated from mouse back, whisker and human foreskin and allowed to grow in spheres. After 2-3 passages, spheres were dissociated and 3000 cells were plated in each well of a 96-well plate. Cells were then treated in triplicate with different concentrations of drugs or only with vehicle DMSO. Drugs were applied again on day 3 and the number of spheres was analyzed on day 7.
SKPs were isolated from mouse back, whisker, and human foreskin and allowed to grow in spheres. After 2-3 passages, spheres were dissociated and 3000 cells were plated in each well of a 96 well plate. Cells were then treated in triplicate with different concentrations of drugs or with vehicle (DMSO) only. Drugs were applied again on day 3 and number of spheres was analyzed on day 7.
Sphere size is […] with, and is thus a measure of, cell proliferation. SKPs were isolated from human foreskin and allowed to grow in spheres. After 2-3 passages, spheres were dissociated and 3000 cells were plated in each well of a 96 well plate. Cells were then treated in triplicate with (a) 100 nM of a single drug, (b) a combination of drugs in which each drug is present at a concentration of 100 nM, or (c) vehicle (DMSO). Drugs were applied again on day 3. To assess how well cells proliferate within the sphere, the size of spheres was analyzed on day 7. […]

The subject of another experiment is C57BL/6 mice. Nature of the experiment: Topical application to depilated dorsal skin: hair length, dermal thickness, anagen follicles, follicle density. Format: in vivo, mouse. As to conditions: for hair length distribution histogram relative to control group: day 23, topical once daily; for anagen hair cycle (anagen hair follicles by morphology) / follicle density (number of follicles per mm): topical once daily for 3 weeks. How it is done:
We tested compounds to determine whether their topical application could induce anagen hair cycle and follicle density. Briefly, seven-week old C57BL/6 mice were used. […] Mice were induced to enter anagen phase by being depilated in the dorsal region. Compounds ([…]) were topically applied onto the dorsal skin once daily for 3 weeks. Three mice were used for each compound group. Approximately 30 hairs from each mouse were plucked at specific days (day 16, day 19, and day 23) and the hair length was measured. Additionally, skin samples for cryosectioning were obtained from the treated dorsal region of each mouse.
All compounds were resuspended in vehicle solution (1.2 propanediol:EtOH:H20 (40:20:40)). Compound concentrations were as follows: alprostadil 40 μg/mL; kaempferol 28.6 μg/mL; pramoxine 329.8 μg/mL; MG 624 45.13 μg/mL. Also tested was Gold Bond topical anesthetic cream. Latanoprost (150 μg/mL) was used as a positive control and AKT inhibitor A443654 (100 μM) was used as a negative control.
FIG. 19 is a series of photomicrographs and graphs showing that topical application of the indicated compounds induces dermal thickness. Dorsal skin of animals topically treated with compounds described above, then isolated, cryosectioned and stained with hematoxylin and eosin. Dermal thickness was manually measured randomly through the slices. A mean of three measurements through the slice were performed and about 20-30 slices were analyzed for each mouse within each compound group.
FIG. 20 is a series of photomicrographs and graphs showing that alprostadil, kaempferol, pramoxine, or MG 624 induces anagen hair cycle and follicle density. The density is expressed as number of follicles per mm whereas the anagen hair follicles are determined by morphology.

For `CC[C@]1(O)C[C@@H]2CN(CCc3c([nH]c4ccccc34)[C@@](C(=O)OC)(c3cc4c(cc3OC)N(C)[C@H]3[C@@](O)(C(=O)OC)[C@H](OC(C)=O)[C@]5(CC)C=CCN6CC[C@]43[C@@H]65)C2)C1` [vinblastine], in experiment [1], the tumor formation entry is “inhibition of tumor formation”.
Turning to `CCCCC[C@H](O)/C=C/[C@H]1[C@H](O)CC(=O)[C@@H]1CCCCCCC(=O)O` [Alprostadil, alprostadil], the “proliferation of human SKPs” value in the experiment with human SKPs [2] is “enhanced proliferation”. In addition, in the experiment with Sox2-EGFP mice, the “hair length distribution histogram relative to control group” value was “shift to longer hair lengths” and the hair length result is on record as “increase in hair length”. Besides, the “size of human SKP spheres” value in the experiment on human SKPs [3] is given as “increase the size of human SKP spheres”. For the same compound, in the experiment with C57BL/6 mice, the “hair length distribution histogram relative to control group” value is “shift versus longer hair length”, the “anagen hair cycle (anagen hair follicles by morphology)” value is given as “induces” and the “follicle density (number of follicles per mm)” value is on record as “induces”.
As to `CCCCOc1ccc(OCCCN2CCOCC2)cc1` [Pramoxine hydrochloride, Pramoxine], the “proliferation of human SKPs” value with human SKPs [2] is given as “enhanced proliferation”. Further, in the experiment with C57BL/6 mice, the “anagen hair cycle (anagen hair follicles by morphology)” value is given as “induces” and the “follicle density (number of follicles per mm)” value is on record as “induces”.
In the case of `O=c1c(O)c(-c2ccc(O)cc2)oc2cc(O)cc(O)c12` [Kaempferol], in the experiment on human SKPs [2], the “proliferation of human SKPs” value was “enhanced proliferation”. In addition, in the experiment with Sox2-EGFP mice, the “hair length distribution histogram relative to control group” value is listed as “shift to longer hair lengths” and the hair length entry was “increase in hair length”. Also, the “size of human SKP spheres” value in the experiment with human SKPs [3] was “increase the size of human SKP spheres”. In the experiment with C57BL/6 mice, the “hair length distribution histogram relative to control group” value is “shift versus longer hair length”, the “anagen hair cycle (anagen hair follicles by morphology)” value is “induces” and the “follicle density (number of follicles per mm)” value is reported as “induces”.
With `CC[N+](CC)(CC)CCOc1ccc(/C=C/c2ccccc2)cc1.[I-]` [MG 624], the “proliferation of human SKPs” value with human SKPs [2] was “enhanced proliferation”. Moreover, the SKP proliferation entry with human SKPs [2] (200 nM) is “enhanced; also recorded: increased”. Moreover, in the experiment with C57BL/6 mice, the “anagen hair cycle (anagen hair follicles by morphology)” value is recorded as “induces” and the “follicle density (number of follicles per mm)” value is given as “induces”.
